The text below walks through data of ChEMBL document CHEMBL1132461 (J Med Chem, 1999).

In assay [1] the target is T1, Angiotensin II receptor (AT-1) type-1 (Rattus norvegicus, UniProt P29089+P25095).
T1 sequence (P29089 whole entry): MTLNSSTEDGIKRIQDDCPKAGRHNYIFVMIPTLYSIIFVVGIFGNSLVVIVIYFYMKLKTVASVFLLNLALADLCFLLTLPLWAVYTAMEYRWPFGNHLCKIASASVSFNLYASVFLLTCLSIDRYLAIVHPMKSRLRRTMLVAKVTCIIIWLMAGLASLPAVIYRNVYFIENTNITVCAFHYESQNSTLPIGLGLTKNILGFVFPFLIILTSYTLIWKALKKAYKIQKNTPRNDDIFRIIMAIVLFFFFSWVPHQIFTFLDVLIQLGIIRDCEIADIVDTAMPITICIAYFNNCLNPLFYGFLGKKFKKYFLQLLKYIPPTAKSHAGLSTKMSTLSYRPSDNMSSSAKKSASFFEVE
T1 sequence (P25095 whole entry): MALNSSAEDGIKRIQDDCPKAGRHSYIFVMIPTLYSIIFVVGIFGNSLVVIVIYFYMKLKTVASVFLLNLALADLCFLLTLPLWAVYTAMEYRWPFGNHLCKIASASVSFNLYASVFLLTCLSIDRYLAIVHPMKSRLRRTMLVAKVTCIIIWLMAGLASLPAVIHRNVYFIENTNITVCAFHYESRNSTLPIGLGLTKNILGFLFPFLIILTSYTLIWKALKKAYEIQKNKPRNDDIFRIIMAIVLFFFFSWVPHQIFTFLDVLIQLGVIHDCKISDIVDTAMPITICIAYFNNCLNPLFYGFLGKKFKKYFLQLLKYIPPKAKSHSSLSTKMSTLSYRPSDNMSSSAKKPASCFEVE
Put plainly: In vitro inhibitory activity against rat Angiotensin II receptor, type 1 expressed in CHO cells. Format: cell-based.

Assay [2] deals with T1, Angiotensin II receptor (AT-1) type-1. Put plainly: In vitro binding affinity against Angiotensin II receptor, type 1 from rat liver membranes.

For orientation: IC50 means the concentration that inhibits the measured activity by half. A lower IC50 goes with inhibition by little substance. Usually Ki stands for a dissociation constant, usually derived from enzyme kinetics or from competition with a known ligand.

Numbered stars: 1 amine (or outer) side, 2 acyl side, 3 side chain; on linkers, the order of the positions; unused ones are H or OH. Bridge positions count the residues as written; N and C are the ends. Square brackets hold non-standard residues; d marks the D form. Peptide text beside a SMILES is read from it. X2 = O=C([C@@H]1CC[C@@H]([*:3])N1[*:1])[*:2]; X1 = O=C([C@@H]1CC[C@H]([*:3])N1[*:1])[*:2]; hCys = N[C@@H](CCS)C(=O)O

For `NC(N)=NCCC[C@H](NC(=O)[C@@H](N)CC(=O)O)C(=O)N[C@H]1CCSSCC[C@@H](C(=O)N[C@@H](Cc2c[nH]cn2)C(=O)N2CCC[C@H]2C(=O)N[C@@H](Cc2ccccc2)C(=O)O)NC(=O)[C@H](Cc2ccc(O)cc2)NC1=O` (H-DR[hCys]Y[hCys]HPF-OH; disulfide 3-5), the half-maximal inhibitory concentration (IC50) in assay [1] is 0.2 nM. In assay [2], the Ki amounted to 0.19 nM.
As to `NC(N)=NCCC[C@H](NC(=O)[C@@H](N)CC(=O)O)C(=O)N[C@H]1CS[C@@H]2CC[C@@H](C(=O)N[C@@H](Cc3c[nH]cn3)C(=O)N3CCC[C@H]3C(=O)N[C@@H](Cc3ccccc3)C(=O)O)N2C(=O)[C@H](Cc2ccc(O)cc2)NC1=O` (H-DRCY[X2]HPF-OH; thioether 3-5), the IC50 in assay [1] was > 10000 nM.
Turning to `NC(N)=NCCC[C@H](NC(=O)[C@@H](N)CC(=O)O)C(=O)N[C@H]1CS[C@H]2CC[C@@H](C(=O)N[C@@H](Cc3c[nH]cn3)C(=O)N3CCC[C@H]3C(=O)N[C@@H](Cc3ccccc3)C(=O)O)N2C(=O)[C@H](Cc2ccc(O)cc2)NC1=O` (H-DRCY[X1]HPF-OH; thioether 3-5), the IC50 in assay [1] was > 10000 nM.
For the compound `CC(C)[C@H](NC(=O)[C@H](CCCN=C(N)N)NC(=O)[C@@H](N)CC(=O)O)C(=O)N[C@@H](Cc1ccc(O)cc1)C(=O)N[C@H]1CS[C@@H]2CC[C@@H](C(=O)N[C@@H](Cc3ccccc3)C(=O)O)N2C(=O)[C@H](Cc2c[nH]cn2)NC1=O` (H-DRVYCH[X2]F-OH; thioether 5-7), the concentration for half-maximal inhibition (IC50) in assay [1] was > 10000 nM.
`NC(N)=NCCC[C@H](NC(=O)[C@@H](N)CC(=O)O)C(=O)N[C@H]1CCS[C@H]2CC[C@@H](C(=O)N[C@@H](Cc3c[nH]cn3)C(=O)N3CCC[C@H]3C(=O)N[C@@H](Cc3ccccc3)C(=O)O)N2C(=O)[C@H](Cc2ccc(O)cc2)NC1=O` (H-DR[hCys]Y[X1]HPF-OH; thioether 3-5): in assay [1], the IC50 is given as 800 nM. This compound also gave a Ki in assay [2] of 750 nM.
